We go through 5 compounds from ChEMBL document CHEMBL1268928, “Design and synthesis of novel pyrimidine hydroxamic acid inhibitors of histone deacetylases” (Bioorg Med Chem Lett, 2010).

For one assay, the system named is U-937. The assay can be described thus: cells. The conditions noted are these: Homo sapiens, U-937, 72 h. Format: functional.
Another assay deals with Histone deacetylase. The assay can be described thus: Inhibition of HDAC in human HeLa cell nuclear extracts by fluorimetric assay. The assay is classed as protein assay.
In the next assay the test system is HuT78. Nature of the assay: cells. Format: functional. The conditions noted are these: Homo sapiens, HuT78, 72 h.
A further assay has as its system HCT-116. Nature of the assay: cells. The assay is classed as functional. To be noted: Homo sapiens, HCT-116, 72 h.
The test system of assay [1] is HeLa. Nature of the assay: cells. Format: functional. The conditions noted are these: Homo sapiens, 72 h.
Description: Growth inhibition of human HeLa cells after 72 hrs by SRB assay
Assay [2] concerns HeLa. Nature of the assay: Growth inhibition of human HeLa cells at 10 uM after 72 hrs by SRB assay. Format: functional. To be noted: read-out: GI. On the technique in general: The SRB assay estimates cell density from bound dye.

Description for HCT-116: Growth inhibition of human HCT116 cells after 72 hrs by SRB assay
Description for HuT78: Growth inhibition of human HUT78 cells after 72 hrs by SRB assay
Description for U-937: Growth inhibition of human U937 cells after 72 hrs by SRB assay

Broadly, the GI50 is the concentration that inhibits growth by half. Read a low GI50 as more potent growth inhibition. As a reminder, the IC50 is the concentration at which inhibition is half-maximal. The low end stands for higher potency, the high end for lower potency. For `O=C(NO)c1ccc(N2C[C@H]3CN(Cc4ccc5ccccc5c4)C[C@H]3C2)nc1`, the GI50 turned out to be 450 nM in the assay on U-937, 340 nM in the assay on HuT78, 700 nM in the assay on HCT-116 and 1260 nM in the assay on HeLa [1]. The half-inhibitory concentration (IC50) against Histone deacetylase turned out to be 45 nM.

On to `O=C(NO)c1cnc(N2C[C@@H]3CN(S(=O)(=O)c4cc(C(F)(F)F)cc(C(F)(F)F)c4)C[C@@H]3C2)nc1`, for which the inhibition of growth at 10 µM in the assay on HeLa [2] is 42%. The figures for the 50% growth inhibitory concentration (GI50) in the assay with U-937, in the assay on HuT78 and in the assay on HCT-116 were 1250 nM, 700 nM and 1700 nM, respectively. Also, on Histone deacetylase, the IC50 is given as 433 nM.

As for `O=C(NO)c1cnc(N2C[C@@H]3CN(S(=O)(=O)c4ccc(OC(F)(F)F)cc4)C[C@@H]3C2)nc1`, the GI50 was found to be 980 nM in the assay on U-937, 500 nM in the assay on HuT78, 530 nM with HCT-116 and 940 nM in the assay with HeLa [1]. On Histone deacetylase, the IC50 was found to be 123 nM.

For `O=C(NO)c1cnc(N2C[C@H]3CN(C(=O)c4ccc5ccccc5c4)C[C@H]3C2)nc1`, the GI50 in the assay on U-937 was found to be 390 nM; with HuT78, 200 nM; in the assay on HCT-116, 590 nM; in the assay with HeLa [1], 210 nM. For the same compound, the IC50 on Histone deacetylase is given as 12 nM.

Turning to `O=C(NO)c1cnc(N2C[C@H]3CN(C(=O)CCCOc4ccccc4)C[C@H]3C2)nc1`, the GI50 was found to be 900 nM in the assay on U-937, 800 nM with HuT78, 1800 nM in the assay on HCT-116 and 3950 nM in the assay on HeLa [1]. Besides, the IC50 against Histone deacetylase is given as 122 nM.
